According to patent publication US20090247559A1 (Exelixis, Inc., priority 2007, published 2009):
Read-outs that look alike come from different tables or passages of the source.

Legend:
CDC7 = CDC7 (Homo sapiens, UniProt O00311); test: CDC7 inhibition, biochemical chemiluminescence assay (Kinase Glo, IC50 determination)
Experimental: Characterization of CDC7 Inhibition in a Biochemical Chemiluminesence Assay (IC50 Determination):
The IC50 evaluation of compounds against the CDC7 enzyme was performed in a Chemiluminesence assay utilizing a Greiner 384-well white binding plate format. […] Upon addition of 10 μL of CDC-7 (GB) to the designated well plates and subsequent incubation for ten minutes at ambient temperature, 10 μL of ATP mix in Tris Base was added. Following an incubation period of 90 minutes at ambient temperature (24-27° C.), 20 μL of Kinase Glo (Promega) was added to measure kinase activity by quantitating the amount of ATP remaining in solution. The luminescence was measured following a Luciferase Protocol on either EnVision or Victor plate readers.

[1] = target: PIM (PIM-1, PIM-2, and/or PIM-3); test: PIM-1, PIM-2 and PIM-3 inhibition, biochemical chemiluminescence assays (Kinase Glo, IC50 determination); settings: Table 1 activity class; PIM refers to PIM-1, PIM-2, and/or PIM-3; read-out: PIM IC50 (Activity B)
[2] = Table 1 activity class, symbol given only if active, read-out: CDC7 IC50 (Activity A)
[3] = compounds in Table 1, read-out: CDC7 IC50 value

Chain of CDC7 (O00311 whole entry): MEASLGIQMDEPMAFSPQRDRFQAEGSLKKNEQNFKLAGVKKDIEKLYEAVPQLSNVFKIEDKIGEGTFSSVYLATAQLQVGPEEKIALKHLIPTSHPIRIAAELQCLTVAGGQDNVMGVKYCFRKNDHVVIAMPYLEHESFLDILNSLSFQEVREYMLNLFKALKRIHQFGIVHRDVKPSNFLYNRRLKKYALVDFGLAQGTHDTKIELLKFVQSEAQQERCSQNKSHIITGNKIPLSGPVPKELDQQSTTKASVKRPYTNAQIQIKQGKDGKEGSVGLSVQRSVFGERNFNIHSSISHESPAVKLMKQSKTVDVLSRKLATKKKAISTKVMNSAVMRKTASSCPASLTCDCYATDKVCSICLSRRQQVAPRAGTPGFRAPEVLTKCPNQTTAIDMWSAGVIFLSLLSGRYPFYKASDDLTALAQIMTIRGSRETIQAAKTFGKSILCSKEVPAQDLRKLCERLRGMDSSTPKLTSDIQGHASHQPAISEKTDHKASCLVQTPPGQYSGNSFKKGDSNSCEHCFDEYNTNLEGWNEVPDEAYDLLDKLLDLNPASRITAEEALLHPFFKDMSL
Chain of CDC7 (Q9UBU7 whole entry partner): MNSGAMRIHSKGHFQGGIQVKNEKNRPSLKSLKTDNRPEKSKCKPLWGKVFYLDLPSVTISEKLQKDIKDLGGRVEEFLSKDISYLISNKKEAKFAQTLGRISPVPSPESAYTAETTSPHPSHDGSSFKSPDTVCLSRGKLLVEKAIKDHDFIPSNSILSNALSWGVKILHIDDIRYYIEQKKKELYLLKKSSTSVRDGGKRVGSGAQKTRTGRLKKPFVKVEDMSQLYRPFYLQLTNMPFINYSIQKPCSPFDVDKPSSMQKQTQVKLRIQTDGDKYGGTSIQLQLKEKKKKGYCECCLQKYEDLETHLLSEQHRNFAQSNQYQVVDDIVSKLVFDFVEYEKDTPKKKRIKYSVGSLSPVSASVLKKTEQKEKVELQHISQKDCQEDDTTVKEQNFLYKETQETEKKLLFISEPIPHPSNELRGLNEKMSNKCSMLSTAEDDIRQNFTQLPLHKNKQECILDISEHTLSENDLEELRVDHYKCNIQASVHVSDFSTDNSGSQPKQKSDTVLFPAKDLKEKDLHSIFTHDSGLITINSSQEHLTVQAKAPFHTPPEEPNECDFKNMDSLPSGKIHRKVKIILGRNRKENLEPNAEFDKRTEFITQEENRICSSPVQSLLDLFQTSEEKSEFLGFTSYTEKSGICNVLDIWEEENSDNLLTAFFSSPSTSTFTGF

| Compound | IC50 (CDC7; [2]) | IC50 [1] | IC50 (CDC7; [3]) |
| --- | --- | --- | --- |
| CN(C)CCCN1CCN(Cc2nc3c(oc4ccc(Br)cc43)c(=O)[nH]2)CC1 [Compound 9, 8-bromo-2-({4-[3-(dimethylamino)propyl]piperazin-1-yl}methyl)[1]benzofuro[3,2-d]pyrimidin-4(3H)-one] | < 10 µM | < 10 µM |  |
| O=c1[nH]c(-c2ccccc2Cl)nc2c1oc1ccc(Br)cc12 [Compound 30, 8-Bromo-2-(2-chlorophenyl)[1]benzofuro[3,2-d]pyrimidin-4(3H)-one] | < 10 µM |  |  |
| COc1ccc2oc3c(=O)[nH]c(-c4ccccc4Cl)nc3c2c1 [Compound 32, 2-(2-Chlorophenyl)-8-(methyloxy)[1]benzofuro[3,2-d]pyrimidin-4(3H)-one] | < 10 µM |  |  |
| CN1C[C@@H]2C[C@H]1CN2Cc1nc2c(oc3ccc(Br)cc32)c(=O)[nH]1 [Compound 142, 8-bromo-2-{[(1S,4S)-5-methyl-2,5-diazabicyclo[2.2.1]hept-2-yl]methyl}[1]benzofuro[3,2-d]pyrimidin-4(3H)-one] | < 10 µM |  |  |
| O=c1[nH]c(CN2CC(O)C2)nc2c1oc1ccc(Br)cc12 [Compound 183, 8-bromo-2-[(3-hydroxyazetidin-1-yl)methyl][1]benzofuro[3,2-d]pyrimidin-4(3H)-one] | < 10 µM |  | < 0.1 µM |
| CN1C[C@@H]2CC[C@H]1CN2Cc1nc2c(oc3ccc(Br)cc32)c(=O)[nH]1 [Compound 330, 8-bromo-2-{[(1S,4S)-5-methyl-2,5-diazabicyclo[2.2.2]oct-2-yl]methyl}[1]benzofuro[3,2-d]pyrimidin-4(3H)-one] | < 10 µM |  |  |
| O=C(NCCN1CCCCC1)c1ccc(-c2nc3c(oc4ccc(Br)cc43)c(=O)[nH]2)c(Cl)c1 [Compound 383, 4-(8-bromo-4-oxo-3,4-dihydro[1]benzofuro[3,2-d]pyrimidin-2-yl)-3-chloro-N-(2-piperidin-1-ylethyl)benzamide] | < 10 µM |  | < 0.1 µM |
| O=c1[nH]c(-c2ccc(CNC3CCNCC3)cc2Cl)nc2c1oc1ccc(Br)cc12 [Compound 387, 8-bromo-2-{2-chloro-4-[(piperidin-4-ylamino)methyl]phenyl}[1]benzofuro[3,2-d]pyrimidin-4(3H)-one] | < 10 µM |  |  |
| O=c1[nH]c(Cc2ccccc2Br)nc2c1oc1ccc(Br)cc12 [Compound 421, 8-bromo-2-[(2-bromophenyl)methyl][1]benzofuro[3,2-d]pyrimidin-4(3H)one] | < 10 µM | < 10 µM | < 0.1 µM |
| O=c1[nH]c(CNCCN2CCCCC2)nc2c1oc1ccc(Br)cc12 [Compound 431, 8-bromo-2-{[(2-piperidin-1-ylethyl)amino]methyl}[1]benzofuro[3,2-d]pyrimidin-4(3H)-one] | < 10 µM | < 10 µM |  |
| O=c1[nH]c([C@@H]2CC(F)(F)CN2)nc2c1oc1ccc(Cl)cc12 [Compound 524, 8-chloro-2-[(2S)-4,4-difluoropyrrolidin-2-yl][1]benzofuro[3,2-d]pyrimidin-4(3H)-one] | < 10 µM | < 10 µM | < 0.1 µM |
| O=c1[nH]c([C@@H]2C[C@H](F)CN2)nc2c1oc1ccc(Cl)cc12 [Compound 525, 8-chloro-2-[(2S,4S)-4-fluoropyrrolidin-2-yl][1]benzofuro[3,2-d]pyrimidin-4(3H)-one] | < 10 µM | < 10 µM | < 0.1 µM |
| COc1ccc2oc3c(=O)[nH]c([C@@H]4C[C@H](F)CN4)nc3c2c1 [Compound 530, 2-[(2S,4S)-4-fluoropyrrolidin-2-yl]-8-(methyloxy)[1]benzofuro[3,2-d]pyrimidin-4(3H)-one] | < 10 µM | < 10 µM | < 0.1 µM |
| NC(Cc1ccccc1)c1nc2c(oc3ccc(Br)cc32)c(=O)[nH]1 (stereo not drawn) [Compound 535, 2-(1-amino-2-phenylethyl)-8-bromo[1]benzofuro[3,2-d]pyrimidin-4(3H)-one] | < 10 µM | < 10 µM |  |
